Measurements taken from patent publication US7998989B2, “2-Imino-1,3-thiazoline-based compounds and T-type calcium channel inhibitors containing the same” (Korea Institute of Science and Technology, priority 2007, dated 2011).

Tests used:
[1] = target: T1, α1G T-type calcium channel (Homo sapiens, UniProt O43497); assay: Assay for % inhibiting activity against T-type calcium channel using FDSS6000 (fluo-3 calcium imaging, KCl activation); assay type: cell-based; details: HEK293 cells stably expressing α1G T-type calcium channel and Kir2.1, compounds of the examples; for inhibition at 10 µM: HEK293, 10 μM, read-out: FDSS (% inhibition)/10uM
T1 construct: host or cells: HEK293
In short: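 HEK293 cells stably expressing α1G and Kir2.1 loaded with 5 μM fluo-3/AM, then in HEPES buffer (pH 7.4) with 10 mM CaCl2. Compound applied 75 s before 75 mM KCl; intracellular Ca2+ read as […] area, % inhibition relative to untreated control.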

T1 sequence (O43497 whole entry): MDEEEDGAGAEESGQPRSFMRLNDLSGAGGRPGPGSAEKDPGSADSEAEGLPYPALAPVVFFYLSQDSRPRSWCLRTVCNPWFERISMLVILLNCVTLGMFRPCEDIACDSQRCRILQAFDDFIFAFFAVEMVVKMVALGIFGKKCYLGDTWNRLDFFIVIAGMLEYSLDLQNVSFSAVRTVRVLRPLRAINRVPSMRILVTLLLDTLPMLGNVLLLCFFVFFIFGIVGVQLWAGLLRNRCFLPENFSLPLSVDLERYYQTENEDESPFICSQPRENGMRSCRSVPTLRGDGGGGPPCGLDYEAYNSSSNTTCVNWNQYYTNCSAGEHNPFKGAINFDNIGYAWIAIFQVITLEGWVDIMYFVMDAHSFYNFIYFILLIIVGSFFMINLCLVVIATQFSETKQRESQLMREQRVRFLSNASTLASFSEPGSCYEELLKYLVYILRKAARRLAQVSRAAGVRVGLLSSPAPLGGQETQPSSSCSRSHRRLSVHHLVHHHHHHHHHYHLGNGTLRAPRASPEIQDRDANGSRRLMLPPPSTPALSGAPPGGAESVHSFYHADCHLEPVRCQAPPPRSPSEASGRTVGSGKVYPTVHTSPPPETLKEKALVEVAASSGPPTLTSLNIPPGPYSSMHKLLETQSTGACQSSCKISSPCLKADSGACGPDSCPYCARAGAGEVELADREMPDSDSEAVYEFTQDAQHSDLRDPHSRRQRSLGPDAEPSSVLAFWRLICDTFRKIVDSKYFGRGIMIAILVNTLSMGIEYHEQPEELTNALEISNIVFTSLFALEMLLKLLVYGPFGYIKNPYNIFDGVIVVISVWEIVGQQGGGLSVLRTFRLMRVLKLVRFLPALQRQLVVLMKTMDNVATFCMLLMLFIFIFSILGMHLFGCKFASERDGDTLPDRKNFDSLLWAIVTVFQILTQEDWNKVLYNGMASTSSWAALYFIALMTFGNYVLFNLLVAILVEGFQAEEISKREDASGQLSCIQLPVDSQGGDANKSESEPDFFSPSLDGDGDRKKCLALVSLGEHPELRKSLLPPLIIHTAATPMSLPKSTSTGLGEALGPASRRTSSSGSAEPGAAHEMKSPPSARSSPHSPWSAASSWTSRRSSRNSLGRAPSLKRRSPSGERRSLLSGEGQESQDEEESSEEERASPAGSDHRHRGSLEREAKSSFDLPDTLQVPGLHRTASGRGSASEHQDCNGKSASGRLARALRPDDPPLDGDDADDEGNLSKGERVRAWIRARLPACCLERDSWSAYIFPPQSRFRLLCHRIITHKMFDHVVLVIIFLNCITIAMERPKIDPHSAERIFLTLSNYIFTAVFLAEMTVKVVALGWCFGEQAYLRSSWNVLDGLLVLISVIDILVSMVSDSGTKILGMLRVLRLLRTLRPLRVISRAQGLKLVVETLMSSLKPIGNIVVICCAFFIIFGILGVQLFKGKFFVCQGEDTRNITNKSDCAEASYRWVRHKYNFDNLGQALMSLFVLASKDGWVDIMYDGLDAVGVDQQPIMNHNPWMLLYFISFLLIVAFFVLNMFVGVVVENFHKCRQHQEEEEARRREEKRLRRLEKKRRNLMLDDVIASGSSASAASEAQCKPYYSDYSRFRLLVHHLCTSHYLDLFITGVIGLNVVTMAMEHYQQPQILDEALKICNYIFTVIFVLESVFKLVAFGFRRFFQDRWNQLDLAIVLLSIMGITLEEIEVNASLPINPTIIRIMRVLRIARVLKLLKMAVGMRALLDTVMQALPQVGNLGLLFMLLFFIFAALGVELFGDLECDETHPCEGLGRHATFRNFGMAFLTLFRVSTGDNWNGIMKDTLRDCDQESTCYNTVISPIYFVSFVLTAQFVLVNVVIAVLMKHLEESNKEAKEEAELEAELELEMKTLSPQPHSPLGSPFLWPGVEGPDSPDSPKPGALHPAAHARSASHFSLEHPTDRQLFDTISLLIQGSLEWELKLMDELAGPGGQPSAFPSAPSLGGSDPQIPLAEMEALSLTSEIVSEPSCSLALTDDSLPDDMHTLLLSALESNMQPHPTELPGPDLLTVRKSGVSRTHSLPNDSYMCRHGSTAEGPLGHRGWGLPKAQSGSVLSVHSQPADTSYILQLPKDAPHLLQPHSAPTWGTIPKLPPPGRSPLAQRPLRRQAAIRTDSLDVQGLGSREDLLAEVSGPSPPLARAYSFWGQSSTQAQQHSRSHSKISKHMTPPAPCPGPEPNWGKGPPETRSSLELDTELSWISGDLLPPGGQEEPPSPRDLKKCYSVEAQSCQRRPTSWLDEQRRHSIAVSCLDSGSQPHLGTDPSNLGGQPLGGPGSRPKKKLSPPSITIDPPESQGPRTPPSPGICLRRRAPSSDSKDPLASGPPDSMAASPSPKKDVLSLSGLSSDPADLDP

| Structure (SMILES) | inhibition at 10 µM [1] | melting point | FDSS (% inhibition)/10uM [1] |
| --- | --- | --- | --- |
| Cl.O=C(CC1CSC(=NC2CCCCC2)N1Cc1ccccc1)Nc1cc(Cl)cc(Cl)c1 (stereo not shown) [KHG24422, (2-cyclohexylimino-3-benzyl-1,3-thiazolidine-4-yl)-N-(3,5-dichlorophenyl)-acetamide hydrochloride] | 46.3% | 178 to 179 °C |  |
| CC1SC(=NC2CCCCC2)N(C)C1CC(=O)Nc1ccc(Cl)cc1 (stereo not shown) [KHG24480, (2-cyclohexylimino-3,5-dimethyl-1,3-thiazolidine-4-yl)-N-(4-chlorophenyl)-acetamide] | 51.6% | 262 to 264 °C |  |
| CC1SC(=NC2CCCCC2)N(C)C1CC(=O)Nc1cc(Cl)cc(Cl)c1 (stereo not shown) [KHG24483, (2-cyclohexylimino-3,5-dimethyl-1,3-thiazolidine-4-yl)-N-(3,5-dichlorophenyl)-acetamide] | 52.5% | 264 to 265 °C |  |
| CC1SC(=NC2CCCCCC2)N(C)C1CC(=O)Nc1ccc(Br)cc1 (stereo not shown) [KHG24486, (2-cycloheptylimino-3,5-dimethyl-1,3-thiazolidine-4-yl)-N-(4-bromophenyl)-acetamide] | 55.8% | 253 to 254 °C |  |
| CCCCc1ccc(NC(=O)CC2C(C)SC(=NC3CCCCCC3)N2C)cc1.Cl (stereo not shown) [KHG24516, (2-cycloheptylimino-3,5-dimethyl-1,3-thiazolidine-4-yl)-N-(4-n-butylphenyl)-acetamide hydrochloride] | 54.6% | 247 to 249 °C |  |
| CCc1ccc(NC(=O)CC2C(C)SC(=NC3CCCCCC3)N2C)cc1.Cl (stereo not shown) [KHG24517, (2-cycloheptylimino-3,5-dimethyl-1,3-thiazolidine-4-yl)-N-(4-ethylphenyl)-acetamide hydrochloride] | 49.6% | 262 to 264 °C |  |
| CC1SC(=NC2CCCCCC2)N(C)C1CC(=O)Nc1ccc(F)cc1.Cl (stereo not shown) [KHG24518, (2-cycloheptylimino-3,5-dimethyl-1,3-thiazolidine-4-yl)-N-(4-fluorophenyl)-acetamide hydrochloride] | 50.7% | 229 to 231 °C |  |
| CC(C)c1ccc(NC(=O)CC2C(C)SC(=NC3CCCCCC3)N2C)cc1.Cl (stereo not shown) [KHG24519, (2-cycloheptylimino-3,5-dimethyl-1,3-thiazolidine-4-yl)-N-(4-isopropylphenyl)-acetamide hydrochloride] | 55.7% | 260 to 262 °C |  |
| CC1SC(=NC2CCCCCC2)N(C)C1CC(=O)Nc1ccc(C(C)(C)C)cc1.Cl (stereo not shown) [KHG24521, (2-cycloheptylimino-3,5-dimethyl-1,3-thiazolidine-4-yl)-N-(4-t-butylphenyl)-acetamide hydrochloride] | 54.3% | 239 to 241 °C |  |
| CC1SC(=NC2CCCCC2)N(C)C1CC(=O)Nc1cc(CF)cc(CF)c1.Cl (stereo not shown) [KHG24522, (2-cyclohexylimino-3,5-dimethyl-1,3-thiazolidine-4-yl)-N-(3,5-difluoromethylphenyl)-acetamide hydrochloride] | 47.9% | 244 to 246 °C |  |
| CC1SC(=NC2CCCCC2)N(C)C1CC(=O)Nc1ccc(OC(F)(F)F)cc1.Cl (stereo not shown) [KHG24524, (2-cyclohexylimino-3,5-dimethyl-1,3-thiazolidine-4-yl)-N-(4-trifluoromethoxyphenyl)-acetamide hydrochloride] | 41.3% | 178 to 180 °C |  |
| CC1SC(=NC2CCCCC2)N(C)C1CC(=O)Nc1ccc(F)cc1.Cl (stereo not shown) [KHG24525, (2-cyclohexylimino-3,5-dimethyl-1,3-thiazolidine-4-yl)-N-(4-fluorophenyl)-acetamide hydrochloride] | 31.5% | 267 to 269 °C |  |
| CC1SC(=NC2CCCCC2)N(C)C1CC(=O)Nc1ccc(C(F)(F)F)cc1.Cl (stereo not shown) [KHG24527, (2-cyclohexylimino-3,5-dimethyl-1,3-thiazolidine-4-yl)-N-(4-trifluoromethylphenyl)-acetamide hydrochloride] | 47% | 190 to 192 °C |  |
| CN1C(=NC2CCCCC2)SCC1CC(=O)Nc1ccc(Cl)c(Cl)c1.Cl (stereo not shown) [KHG24531, (2-cyclohexylimino-3-methyl-1,3-thiazolidine-4-yl)-N-(3,4-dichlorophenyl)-acetamide hydrochloride] | 48.4% | 223 °C |  |
| CN1C(=NC2CCCCC2)SCC1CC(=O)Nc1cc(Cl)ccc1Cl.Cl (stereo not shown) [KHG24532, (2-cyclohexylimino-3-methyl-1,3-thiazolidine-4-yl)-N-(2,5-dichlorophenyl)-acetamide hydrochloride] | 52.5% | 208 °C |  |
| CN1C(=NC2CCCCC2)SCC1CC(=O)Nc1cc(Cl)c(Cl)cc1Cl.Cl (stereo not shown) [KHG24533, (2-cyclohexylimino-3-methyl-1,3-thiazolidine-4-yl)-N-(2,4,5-trichlorophenyl)-acetamide hydrochloride] | 48.9% | 186 °C |  |
| CN1C(=NC2CCCCC2)SCC1CC(=O)Nc1cc(F)cc(F)c1.Cl (stereo not shown) [KHG24534, (2-cyclohexylimino-3-methyl-1,3-thiazolidine-4-yl)-N-(3,5-difluorophenyl)-acetamide hydrochloride] | 45.7% | 240 °C |  |
| CN1C(=NC2CCCCCC2)SCC1C(=O)Nc1ccc(F)c(F)c1 (stereo not shown) [KHG24627, (2-cycloheptylimino-3-methyl-1,3-thiazolidine-4-yl)-N-(3,4-difluorophenyl)-carboxamide] | 48.5% | 209.6 °C |  |
| Cc1ccc(NC(=O)C2CSC(=NC3CCCCCC3)N2C)cc1.Cl (stereo not shown) [KHG24629, (2-cycloheptylimino-3-methyl-1,3-thiazolidine-4-yl)-N-(4-methylphenyl)-carboxamide hydrochloride] |  | 202.1 °C | 47.03% |
| CN1C(=NC2CCCCCC2)SCC1C(=O)Nc1cc(C(F)(F)F)cc(C(F)(F)F)c1.Cl (stereo not shown) [KHG24632, (2-cycloheptylimino-3-methyl-1,3-thiazolidine-4-yl)-N-(3,5-ditrifluoromethylphenyl)-carboxamide hydrochloride] |  | 202 °C | 57.06% |
| CN1C(=NC2CCCCCC2)SCC1C(=O)Nc1ccc(Br)cc1 (stereo not shown) [KHG24633, (2-cycloheptylimino-3-methyl-1,3-thiazolidine-4-yl)-N-(4-bromophenyl)-carboxamide] | 40.4% | 109.2 °C |  |
| CN1C(=NC2CCCCCC2)SCC1C(=O)Nc1ccccc1Br.Cl (stereo not shown) [KHG24634, (2-cycloheptylimino-3-methyl-1,3-thiazolidine-4-yl)-N-(2-bromophenyl)-carboxamide hydrochloride] | 46.9% | 232.8 °C |  |

The next lines start with the values.

| inhibition at 10 µM [1] | melting point | FDSS (% inhibition)/10uM [1] | Structure (SMILES) |
| --- | --- | --- | --- |
| 50.8% | 242 °C |  | CN1C(=NC2CCCCCC2)SCC1CC(=O)Nc1ccc([N+](=O)[O-])cc1.Cl (stereo not shown) [KHG24445, (2-cycloheptylimino-3-methyl-1,3-thiazolidine-4-yl)-N-(4-nitrophenyl)-acetamide hydrochloride] |
| 52.4% | 260 to 262 °C |  | CC1SC(=NC2CCCCC2)N(C)C1CC(=O)Nc1ccc(Br)cc1 (stereo not shown) [KHG24482, (2-cyclohexylimino-3,5-dimethyl-1,3-thiazolidine-4-yl)-N-(4-bromophenyl)-acetamide] |
| 32.8% | 249 to 251 °C |  | CC1SC(=NC2CCCCC2)N(C)C1CC(=O)Nc1cc([N+](=O)[O-])ccc1F (stereo not shown) [KHG24484, (2-cyclohexylimino-3,5-dimethyl-1,3-thiazolidine-4-yl)-N-(2-fluoro-5-nitrophenyl)-acetamide] |
| 64.8% | 261 to 263 °C |  | CC1SC(=NC2CCCCCC2)N(C)C1CC(=O)Nc1ccc(C(F)(F)F)cc1.Cl (stereo not shown) [KHG24520, (2-cycloheptylimino-3,5-dimethyl-1,3-thiazolidine-4-yl)-N-(4-trifluoromethylphenyl)-acetamide hydrochloride] |
| 46.3% | 265 to 266 °C |  | CCc1ccc(NC(=O)CC2C(C)SC(=NC3CCCCC3)N2C)cc1.Cl (stereo not shown) [KHG24523, (2-cyclohexylimino-3,5-dimethyl-1,3-thiazolidine-4-yl)-N-(4-ethylphenyl)-acetamide hydrochloride] |
| 42.3% | 265 to 267 °C |  | CC(C)c1ccc(NC(=O)CC2C(C)SC(=NC3CCCCC3)N2C)cc1.Cl (stereo not shown) [KHG24526, (2-cyclohexylimino-3,5-dimethyl-1,3-thiazolidine-4-yl)-N-(4-isopropylphenyl)-acetamide hydrochloride] |
| 54.2% | 160 °C |  | CC(C)c1cccc(NC(=O)CC2CSC(=NC3CCCCC3)N2C)c1.Cl (stereo not shown) [KHG24528, (2-cyclohexylimino-3-methyl-1,3-thiazolidine-4-yl)-N-(3-isopropylphenyl)-acetamide hydrochloride] |
| 38.5% | 215 °C |  | CN1C(=NC2CCCCC2)SCC1CC(=O)Nc1cccc(Cl)c1Cl.Cl (stereo not shown) [KHG24530, (2-cyclohexylimino-3-methyl-1,3-thiazolidine-4-yl)-N-(2,3-dichlorophenyl)-acetamide hydrochloride] |
| 51.1% | 180 °C |  | Cl.O=C(CC1CSC(=NC2CCCCC2)N1C1CCCCC1)NCc1ccccc1C(F)(F)F (stereo not shown) [KHG24547, (2-cyclohexylimino-3-cyclohexyl-1,3-thiazolidine-4-yl)-N-(2-trifluoromethylbenzyl)-acetamide hydrochloride] |
| 42.6% | 187.9 °C |  | CN1C(=NC2CCCCCC2)SCC1C(=O)Nc1cc(F)ccc1F.Cl (stereo not shown) [KHG24626, (2-cycloheptylimino-3-methyl-1,3-thiazolidine-4-yl)-N-(2,5-difluorophenyl)-carboxamide hydrochloride] |
